# Data published in the NIST ThermoML archive (doi:10.1021/acs.jced.6b00430).
# Numbers after ± are expanded uncertainties.
# Tests used:
# [1] = xn = mol fraction of the nth substance listed; details: 100 kPa, Liquid, x2 = 0; for mass density: Vibrating tube method
# [2] = 100 kPa, Liquid; for viscosity: Concentric cylinders viscometry; for mass density: Vibrating tube method
SMILES,mass density ([1]; 328.15 K),mass density ([1]; 338.15 K),viscosity ([2]; 298.15 K),viscosity ([2]; 308.15 K),viscosity ([2]; 318.15 K),viscosity ([2]; 328.15 K),mass density ([2]; 328.15 K),viscosity ([2]; 338.15 K),mass density ([2]; 338.15 K),other results
CN(C)C=O [dimethylformamide] + O=[PH](O)O,915.06 ± 10 kg/m3,905.35 ± 10 kg/m3,–,–,–,–,–,–,–,"viscosity ([1]; 298.15 K, Concentric cylinders viscometry): 0.783 ± 0.047 mPa·s; mass density ([1]; 298.15 K): 943.92 ± 10 kg/m3; viscosity ([1]; 308.15 K, Concentric cylinders viscometry): 0.699 ± 0.042 mPa·s; mass density ([1]; 308.15 K): 934.35 ± 10 kg/m3; viscosity ([1]; 318.15 K, Concentric cylinders viscometry): 0.623 ± 0.038 mPa·s; mass density ([1]; 318.15 K): 924.72 ± 10 kg/m3; viscosity ([1]; 328.15 K, Concentric cylinders viscometry): 0.555 ± 0.034 mPa·s; viscosity ([1]; 338.15 K, Concentric cylinders viscometry): 0.495 ± 0.03 mPa·s; mass density ([1]; 348.15 K): 895.57 ± 10 kg/m3"
CN(C)C=O [dimethylformamide],–,–,0.783 ± 0.047 mPa·s,0.699 ± 0.042 mPa·s,0.623 ± 0.038 mPa·s,0.555 ± 0.034 mPa·s,915.06 ± 10 kg/m3,0.495 ± 0.03 mPa·s,905.35 ± 10 kg/m3,mass density ([2]; 298.15 K): 943.92 ± 10 kg/m3; mass density ([2]; 308.15 K): 934.35 ± 10 kg/m3; mass density ([2]; 318.15 K): 924.72 ± 10 kg/m3; mass density ([2]; 348.15 K): 895.57 ± 10 kg/m3
O [water],–,–,0.89 ± 0.054 mPa·s,0.719 ± 0.044 mPa·s,0.596 ± 0.036 mPa·s,0.504 ± 0.031 mPa·s,985.69 ± 10 kg/m3,0.434 ± 0.026 mPa·s,980.55 ± 10 kg/m3,–
O [water] + O=[PH](O)O,985.69 ± 10 kg/m3,980.55 ± 10 kg/m3,–,–,–,–,–,–,–,"viscosity ([1]; 298.15 K, Capillary tube (Ostwald / Ubbelohde) method): 0.89 ± 0.054 mPa·s; viscosity ([1]; 308.15 K, Capillary tube (Ostwald / Ubbelohde) method): 0.719 ± 0.043 mPa·s; viscosity ([1]; 318.15 K, Capillary tube (Ostwald / Ubbelohde) method): 0.596 ± 0.036 mPa·s; viscosity ([1]; 328.15 K, Capillary tube (Ostwald / Ubbelohde) method): 0.504 ± 0.03 mPa·s; viscosity ([1]; 338.15 K, Capillary tube (Ostwald / Ubbelohde) method): 0.434 ± 0.026 mPa·s"
